Experimental data as given in patent US6878742B2, “Heterocyclic sulfonamide inhibitors of beta amyloid production” (Wyeth, priority 2000, dated 2005).
Several values for one entry are separate records, joined by “and”; a condition that tells them apart may be missing. Identical values can stand only once.

System: amyloid precursor protein (APP) proteolysis
Test: Repressor Release Assay (RRA)
Assay type: cell-based
Settings: luciferase activity over diluent control
How it was run: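 CHO-K1 cells grown in DMEM with 10% fetal bovine serum were transiently co-transfected with pRSVO-luc and APP-lacI constructs via Lipofectamine Plus, plated into opaque 96-well plates, and exposed to diluted compound in duplicate for 36-48 hours at 37° C. LucLite luciferase signal was read on a TopCount and expressed as fold increase in relative light units over Hepes/DMSO diluent control.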

[1] = Conc 20 μg/mL, read-out: APPI Fold Increase
[2] = Conc 3 μg/mL, read-out: APPI Fold Increase
[3] = Conc 10 μg/mL, read-out: APPI Fold Increase

Q: How did the fold induction at 20 µg/mL [1] turn out when `CC[C@H](C)[C@@H](CO)N(Cc1cccc(Cl)c1)S(=O)(=O)c1ccc(Cl)s1` [Example 88, 5-chloro-N-(3-chlorobenzyl)-N-[(1S,2S)-1-(hydroxymethyl)-2-methylbutyl]thiophene-2-sulfonamide] was run?
A: 4.9

Q: How did the fold induction at 20 µg/mL [1] turn out when `CC(C)C[C@@H](c1ccc(-c2ccccc2)cc1)[C@@H](CO)NS(=O)(=O)c1ccc(Cl)s1` [Example 55, N-[(1S,2S)-2-[1,1'-biphenyl]-4-yl-1-(hydroxymethyl)-4-methylpentyl]-5-chlorothiophene-2-sulfonamide] was run?
A: 1.9

Q: How did the fold induction at 20 µg/mL [1] turn out when `O=S(=O)(N[C@H](CO)c1ccccc1)c1ccc(Br)s1` [Example 104, 5-bromo-N-[(S)-2-hydroxy-1-phenylethyl]thiophene-2-sulfonamide] was run?
A: 2.5

Q: Which “APPI Fold Increase” value (Conc 1 μg/mL) does the source give for `C=CCC(O)C(NS(=O)(=O)c1ccc(Cl)s1)C(C)CC` (mixture of isomers) [Example 128] here?
A: 1.52 fold

Q: And the “APPI Fold Increase” value (Conc 3 μg/mL)?
A: 2.48 fold

Q: What about the “APPI Fold Increase” value (Conc 10 μg/mL) of the same compound?
A: 5.62 fold and 3.86 fold

Q: And the “APPI Fold Increase” value (Conc 20 μg/mL)?
A: 5.9 fold

Q: For `CC[C@@H](C)[C@@H](CO)NS(=O)(=O)c1ccc(Cl)s1` [Example 16], which “APPI Fold Increase” value (Conc 0.3 μg/mL) is on record?
A: 1.7 fold

Q: What about the “APPI Fold Increase” value (Conc 1 μg/mL) of the same compound?
A: 1.9 fold and 2.56 fold

Q: And the “APPI Fold Increase” value (Conc 3 μg/mL)?
A: 3.1 fold and 4.47 fold

Q: What about the “APPI Fold Increase” value (Conc 10 μg/mL) of the same compound?
A: 4.19 fold and 3.2 fold

Q: With `O=S(=O)(N[C@H](CO)Cc1ccc(OCc2ccccc2)cc1)c1ccc(Br)s1` [Example 116, N-{(S)-1-[4-(benzyloxy)benzyl]-2-hydroxyethyl}-5-bromothiophene-2-sulfonamide] as the compound, how does the fold induction at 20 µg/mL [1] read?
A: 2.2

Q: For `CC(C)C[C@@H](c1ccccc1)[C@@H](CO)NS(=O)(=O)c1ccc(Br)s1` [Example 68, 5-bromo-N-[(1S,2S)-1-(hydroxymethyl)-4-methyl-2-phenylpentyl]thiophene-2-sulfonamide], which fold induction at 20 µg/mL [1] is on record?
A: 2.3

Q: Which results are given for `O=S(=O)(N[C@H](CO)C1CCCCC1)c1ccc(Cl)s1` [Example 12, 5-Chloro-N-[(1S)-1-cyclohexyl-2-hydroxyethyl]thiophene-2-sulfonamide]?
A: fold induction at 1 µg/mL (Conc 1 μg/mL, read-out: APPI Fold Increase): 2.58; fold induction at 3 µg/mL [2]: 3.07; fold induction at 10 µg/mL [3]: 4.2; fold induction at 20 µg/mL [1]: 4.3

Q: `CC[C@@H](c1ccco1)[C@@H](CO)NS(=O)(=O)c1ccc(Br)s1` [Example 71, 5-bromo-N-[(1S,2R)-2-(2-furyl)-1-(hydroxymethyl)butyl]thiophene-2-sulfonamide] was tested. Which fold induction at 20 µg/mL [1] did it give?
A: 5.2

Q: With `O=S(=O)(NC1(CO)CC2CCC1C2)c1ccc(Cl)s1` (centres unmarked) [Example 178, 5-chloro-N-[2-(hydroxymethyl)bicyclo[2.2.1]hept-2-yl]thiophene-2-sulfonamide] as the compound, how does the fold induction at 20 µg/mL [1] read?
A: 2.3

Q: With `CC[C@H](C)[C@H](NS(=O)(=O)c1ccc(Cl)s1)C(O)c1ccc(SC)cc1` (stereo partly drawn) [Example 138, 5-chloro-N-((S,S)-1-{hydroxy[4-(methylthio)phenyl]methyl}-2-methylbutyl)thiophene-2-sulfonamide] as the compound, how does the fold induction at 10 µg/mL [3] read?
A: 3.54

Q: Which fold induction at 20 µg/mL [1] does the source give for `CCC(CO)(CO)NS(=O)(=O)c1ccc(Cl)s1` [Example 93, N-[1,1-bis(hydroxymethyl)propyl]-5-chlorothiophene-2-sulfonamide] here?
A: 2

Q: With `CCCCC(O)[C@@H](NS(=O)(=O)c1cccs1)[C@@H](C)CC` (stereo partly drawn) [Example 143, N-{(S)-2-hydroxy-1-[(S)-1-methylpropyl]hexyl}thiophene-2-sulfonamide] as the compound, how does the fold induction at 10 µg/mL [3] read?
A: 1.64

Q: For `CCOC(=O)CNC1CCC([C@@H](CO)NS(=O)(=O)c2ccc(Cl)s2)CC1` (stereo partly drawn) [Example 220, 5-chloro-N-[(S)-2-hydroxy-1-(4-(carboethoxymethyl)aminocyclohexyl)ethyl]thiophene 2-sulfonamide], which fold induction at 20 µg/mL [1] is on record?
A: 2.5

Q: Which “APPI Fold Increase” value (Conc 20 μg/mL) does the source give for “5-chloro-N-{(S,S)-1-[(S)-1-hydroxyethyl]-2-methylbutyl}thiophene-2-sulfonamide [Example 184]” here?
A: 3.7 fold and 2.7 fold

Q: How did the fold induction at 20 µg/mL [1] turn out when `O=S(=O)(N[C@H](CO)C1CCC(N2CCOCC2)CC1)c1ccc(Cl)s1` (stereo partly drawn) [Example 217, 5-chloro-N-[(S)-2-hydroxy-1-(4-morpholinocyclohexyl)ethyl]thiophene-2-sulfonamide] was run?
A: 1.8

Q: How did the fold induction at 20 µg/mL [1] turn out when `CCCCC[C@H](c1ccc(OC)cc1)[C@@H](CO)NS(=O)(=O)c1ccc(Cl)s1` [Example 43, 5-chloro-N-[(1S,2R)-1-(hydroxymethyl)-2-(4-methoxyphenyl)heptyl]thiophene-2-sulfonamide] was run?
A: 1.7

Q: With `CC=C(C)C(O)C(NS(=O)(=O)c1ccc(Cl)s1)C(C)CC` (mixture of isomers) [Example 135] as the compound, how does the “APPI Fold Increase” value (Conc 10 μg/mL) read?
A: 1.93 fold and 1.75 fold

Q: How did the fold induction at 10 µg/mL [3] turn out when `CC[C@H](C)[C@H](NS(=O)(=O)c1cccs1)C(O)c1ccccc1C` (stereo partly drawn) [Example 144, N-{(S,S)-1-[hydroxy(2-methylphenyl)methyl]-2-methylbutyl}thiophene-2-sulfonamide] was run?
A: 1.51

Q: For `CCCC(CO)NS(=O)(=O)c1ccc(Br)s1` (racemic) [Example 112, 5-bromo-N-[1-(hydroxymethyl)butyl]thiophene-2-sulfonamide], which fold induction at 20 µg/mL [1] is on record?
A: 1.6

Q: For `CCCCCC[C@H](CC)[C@@H](CO)NS(=O)(=O)c1ccc(Cl)s1` [Example 77B, 5-chloro-N-[(1S,2S)-2-ethyl-1-(hydroxymethyl)octyl]thiophene-2-sulfonamide], which fold induction at 20 µg/mL [1] is on record?
A: 16.9

Q: Which fold induction at 20 µg/mL [1] does the source give for `O=S(=O)(N[C@H](CO)Cc1ccccc1)c1ccc(Cl)s1` [Example 96, N-[(S)-1-benzyl-2-hydroxyethyl]-5-chlorothiophene-2-sulfonamide] here?
A: 1.5

Q: With `CC#CC(O)[C@@H](NS(=O)(=O)c1cccs1)[C@@H](C)CC` (stereo partly drawn) [Example 152, N-{(S)-2-hydroxy-1-[(S)-1-methylpropyl]pent-3-ynyl}thiophene-2-sulfonamide] as the compound, how does the fold induction at 10 µg/mL [3] read?
A: 1.51

Q: With `CC[C@H](C)[C@@H](CO)NS(=O)(=O)c1ccc(Cl)o1` [Example 204, 5-Chloro-N-[(1S,2S)-1-(hydroxymethyl)-2-methylbutyl]-2-furansulfonamide] as the compound, how does the fold induction at 20 µg/mL [1] read?
A: 2.8

Q: With `CC[C@H](C)[C@H](NS(=O)(=O)c1ccc(Cl)s1)C(O)CCC1OCCCO1` (stereo partly drawn) [Example 136, 5-chloro-N-{(S)-4-(1,3-dioxan-2-yl)-2-hydroxy-1-[(S)-1-methylpropyl]butyl}thiophene-2-sulfonamide] as the compound, how does the fold induction at 10 µg/mL [3] read?
A: 2.13

Q: How did the “APPI Fold Increase” value (Conc 20 μg/mL) turn out when `CCCNC1CCC(C(CO)NS(=O)(=O)c2ccc(Cl)s2)CC1` (mixture of isomers) [Example 214] was run?
A: 2.1 fold

Q: For `CSCC[C@@H](CO)NS(=O)(=O)c1ccc(Br)s1` [Example 111, 5-bromo-N-[(S)-1-(hydroxymethyl)-3-(methylthio)propyl]thiophene-2-sulfonamide], which fold induction at 20 µg/mL [1] is on record?
A: 1.8

Q: What does the source list for `CC[C@H](C)[C@@H](CO)NS(=O)(=O)C1=CC=C(Br)S1(=O)=O` [Example 18, 5-Bromo-N-[(1S,2S)-1-(hydroxymethyl)-2-methylbutyl]thiophene-2-sulfonamide 1,1-dioxide]?
A: fold induction at 3 µg/mL [2]: 2.19; fold induction at 10 µg/mL [3]: 5.23; fold induction at 20 µg/mL [1]: 5.7

Q: With `CCC(CC)[C@@H](CO)NS(=O)(=O)c1ccc(F)s1` [Example 227, N-[(S)-2-Ethyl-1-(hydroxymethyl)butyl]-5-fluorothiophene-2-sulfonamide] as the compound, how does the fold induction at 20 µg/mL [1] read?
A: 26.3

Q: `CCC[C@H](CC(C)C)[C@@H](CO)NS(=O)(=O)c1ccc(Br)s1` [Example 61, 5-bromo-N-[(1S,2R)-1-(hydroxymethyl)-4-methyl-2-propylpentyl]thiophene-2-sulfonamide] was tested. Which fold induction at 20 µg/mL [1] did it give?
A: 5.7

Q: For `COC1CCC([C@@H](CO)NS(=O)(=O)c2ccc(Cl)s2)CC1` (stereo partly drawn) [Example 199, 5-Chloro-N-[(S)-2-hydroxy-1-(4-methoxycyclohexyl)ethyl]thiophene-2-sulfonamide], which fold induction at 20 µg/mL [1] is on record?
A: 2.8

Q: Which “APPI Fold Increase” value (Conc 10 μg/mL) does the source give for `CC(C)(C)[C@@H](CO)NS(=O)(=O)c1ccc(Cl)s1` [Example 98] here?
A: 2.43 fold

Q: With `CC[C@H](CC(C)C)[C@@H](CO)NS(=O)(=O)c1ccc(Cl)s1` [Example 31, 5-chloro-N-[(1S,2R)-2-ethyl-1-(hydroxymethyl)-4-methylpentyl]thiophene-2-sulfonamide] as the compound, how does the fold induction at 20 µg/mL [1] read?
A: 4.4

Q: For `O=S(=O)(NC(CO)C1CCCCC1)c1ccc(Br)s1` (centres unmarked) [Example 13], which “APPI Fold Increase” value (Conc 1 μg/mL) is on record?
A: 2.17 fold

Q: What about the “APPI Fold Increase” value (Conc 3 μg/mL) of the same compound?
A: 4.02 fold

Q: What about the “APPI Fold Increase” value (Conc 10 μg/mL) of the same compound?
A: 3.94 fold

Q: Which fold induction at 20 µg/mL [1] does the source give for `CC[C@H](C)[C@@H](/C=N/O)NS(=O)(=O)c1ccc(Cl)s1` [Example 230] here?
A: 4.8

Q: How did the fold induction at 10 µg/mL [3] turn out when `C=CCCC(O)(CCC=C)[C@@H](NS(=O)(=O)c1ccc(Cl)s1)[C@@H](C)CC` [Example 171, N-{(S)-2-but-3-enyl-2-hydroxy-1-[(S)-1-methylpropyl]hex-5-enyl}-5-chlorothiophene-2-sulfonamide] was run?
A: 5.32

Q: Which fold induction at 20 µg/mL [1] does the source give for `C[C@H](OCc1ccccc1)[C@@H](CO)NS(=O)(=O)c1ccc(Cl)s1` [Example 102, N-[(R,S)-2-(benzyloxy)-1-(hydroxymethyl)propyl]-5-chlorothiophene-2-sulfonamide] here?
A: 1.6

Q: For `C[C@@H](c1ccc(-c2ccccc2)cc1)[C@@H](CO)NS(=O)(=O)c1ccc(Cl)s1` [Example 53, N-[(1S,2S)-2-[1,1'-biphenyl]-4-yl-1-(hydroxymethyl)propyl]-5-chlorothiophene-2-sulfonamide], which fold induction at 20 µg/mL [1] is on record?
A: 3.9

Q: For `CC[C@@H](c1ccccc1)[C@@H](CO)NS(=O)(=O)c1ccc(Br)s1` [Example 67, 5-bromo-N-[(1S,2S)-1-(hydroxymethyl)-2-phenylbutyl]thiophene-2-sulfonamide], which fold induction at 20 µg/mL [1] is on record?
A: 4.7

Q: Which fold induction at 20 µg/mL [1] does the source give for `CCCC(CO)NS(=O)(=O)c1ccc(Cl)s1` (racemic) [Example 97, 5-chloro-N-[1-(hydroxymethyl)butyl]thiophene-2-sulfonamide] here?
A: 1.8

Q: Which “APPI Fold Increase” value (Conc 3 μg/mL) does the source give for `CC(C)CC(CO)NS(=O)(=O)c1ccc(Cl)s1` (centres unmarked) [Example 90] here?
A: 1.74 fold

Q: And the “APPI Fold Increase” value (Conc 10 μg/mL)?
A: 3.82 fold

Q: And the “APPI Fold Increase” value (Conc 20 μg/mL)?
A: 3.6 fold
